US10058593B2, “Methods and compositions for oral administration of proteins” (Oramed Ltd., priority 2008, dated 2018)

Tested on: dogs
Assay: Previous experiment in dogs treated with the same formulations
Type: in vivo, dog
Description: 4 days prior to dosing, formulation were prepared containing: (1) 8 mg insulin, 150 mg EDTA, 125 mg SBTI in 1 ml fish oil in a soft-gel capsule (SwissCup), (2). 8 mg insulin, 150 mg EDTA, 150000 KIU Aprotinin in 1 ml fish oil in a soft-gel capsule (SwissCup), (3) 8 mg insulin, 150 mg EDTA, 150000 KIU Aprotinin, 125 mg SBTI in 1 ml fish oil in a soft-gel capsule (SwissCup). The formulations were stored in the refrigerator (4° C.) until dosing.
Thus, the results regarding the reduction in blood glucose levels with insulin and a combination of protease inhibitors was unexpected.
Thus, the results regarding the reduction in blood C-peptide levels with insulin and a combination of protease inhibitors was unexpected.
The above described formulations are also active with 0.5 ml fish oil both in dogs and humans.

With Aprotinin the “reaction of dogs to Aprotinin” value was “do not react”.
